# Experimental data from ChEMBL document CHEMBL3399944, “Synthesis and anticancer cell potential of steroidal 16,17-seco-16,17a-dinitriles: identification of a selective inhibitor of hormone-independent breast cancer cells” (Bioorg Med Chem, 2015).
# Assays:
# [1] = system: HeLa; assay: Antiproliferative activity against human HeLa cells after 48 hrs by MTT assay; type: functional, cell-based
# [2] = system: MDA-MB-231; assay: Antiproliferative activity against human MDA-MB-231 cells after 48 hrs by MTT assay; type: functional, cell-based; settings: MDA-MB-231, 48 h
# [3] = system: MCF7; assay: Antiproliferative activity against human MCF7 cells after 48 hrs by MTT assay; type: functional, cell-based; settings: MCF7, 48 h
# [4] = Antiproliferative activity against human PC3 cells after 48 hrs by MTT assay; type: functional, cell-based; settings: PC-3, 48 h
# [5] = system: MRC5; assay: Antiproliferative activity against human MRC5 cells after 48 hrs by MTT assay; type: cell-based; settings: MRC5, 48 h
# [6] = system: MDA-MB-231; assay: Induction of apoptosis in human MDA-MB-231 cells at IC50 after 48 hrs by Giemsa staining-based light microscopy (reference value: 7%); type: functional
# [7] = system: MCF7; assay: Antiproliferative activity against human MCF7 cells at 10 nM after 48 hrs by MTT assay; type: functional; settings: MCF7, 48 h
# [8] = system: MDA-MB-231; assay: Antiproliferative activity against human MDA-MB-231 cells at 10 nM after 48 hrs by MTT assay; type: functional; settings: MDA-MB-231, 48 h
Compound,IC50 [1],IC50 [2],IC50 [3],IC50 [4],IC50 [5],Activity [6],inhibition at 0.01 µM [7],inhibition at 0.01 µM [8]
C[C@]1(CC#N)CC[C@@H]2c3ccc(O)cc3CC[C@H]2[C@@H]1CC#N,7.32 µM,3.96 µM,17 µM,11.2 µM,> 100 µM,11.1%,,
C[C@]1(CC#N)CC[C@H]2[C@@H](CC=C3C[C@@H](O)CC[C@@]32C)[C@@H]1CC#N,2.15 µM,34.8 µM,30 µM,19.1 µM,> 100 µM,18%,,
C[C@]1(CC#N)CC[C@H]2[C@@H](CCC3=CC(=O)CC[C@@]32C)[C@@H]1CC#N,5.73 µM,15.5 µM,15 µM,8.27 µM,> 100 µM,15.9%,,
C[C@]1(CC#N)CC[C@H]2[C@@H](CCC3=C(O)C(=O)CC[C@@]32C)[C@@H]1CC#N,14.7 µM,39.6 µM,57 µM,8.69 µM,> 100 µM,11%,,
C[C@]1(CC#N)CC[C@H]2[C@@H](CCC3=CC(=O)C=C[C@@]32C)[C@@H]1CC#N,12.5 µM,0.11 µM,0.52 µM,70.9 µM,> 100 µM,14.1%,61%,69%
COc1cccc2c1C(=O)c1c(O)c3c(c(O)c1C2=O)C[C@@](O)(C(=O)CO)C[C@@H]3O[C@H]1C[C@H](N)[C@H](O)[C@H](C)O1 [DOXORUBICIN],,,0.75 µM,95.6 µM,,11%,,
C[C@]12CCC(=O)C(O)=C1CC[C@@H]1[C@@H]2CC[C@]2(C)C(=O)CC[C@@H]12 [FORMESTANE],1.9 µM,53.3 µM,> 100 µM,45.6 µM,> 100 µM,11%,,
